Measurements as given in patent publication US9409876B2, “Bradykinin receptor antagonists and pharmaceutical compositions containing them” (DOMPE' FARMACEUTICI S.P.A., priority 2013, dated 2016).

Target: T1, BKB1 receptors (Homo sapiens, UniProt P46663)
T1 construct: Human (IMR-90) lung fibroblast cells expressing native BKB1 receptors; endogenous in cells; host or cells: IMR-90 human lung fibroblasts, treated with human IL-1 to up-regulate BKB1
T1 sequence (P46663 1-353): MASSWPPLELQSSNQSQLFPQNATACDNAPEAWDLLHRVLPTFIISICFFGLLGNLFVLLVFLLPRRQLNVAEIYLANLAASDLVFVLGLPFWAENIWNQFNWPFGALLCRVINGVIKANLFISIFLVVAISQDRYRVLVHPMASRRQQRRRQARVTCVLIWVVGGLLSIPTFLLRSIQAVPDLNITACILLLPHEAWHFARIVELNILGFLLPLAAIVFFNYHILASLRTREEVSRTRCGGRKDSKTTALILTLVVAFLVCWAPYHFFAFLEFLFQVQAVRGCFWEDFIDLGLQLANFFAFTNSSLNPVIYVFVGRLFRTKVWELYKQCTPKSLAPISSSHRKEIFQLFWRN
Test: Calcium Mobilization Assay (FLIPR), IMR-90 cells, BKB1
Format: cell-based
Conditions: IL-1 induced IMR-90 cells, agonist desArg10-kallidin (DAKD)
Method: Calcium Mobilization Assay (FLIPR)—Human (IMR-90) lung fibroblast cells expressing native BKB1 receptors were harvested by trypsinization and seeded into black wall/clear bottom 96-well plates (Costar 3904; Corning Life Sciences, Acton, Mass.) at approximately 13,000 cells/well. After 1 day incubation, cells were treated with human IL-1 (0.35 ng/ml) in 10% FBS/MEM for 2 h to up-regulate BKB1 receptors. Induced cells were loaded with fluorescent calcium indicator by incubation with 2.3 µM Fluo-4/acetoxymethyl ester (Invitrogen) at 37° C. for 1.5 h in the presence of an anion transport inhibitor (2.5 mM probenecid in 1% FBS/MEM). Extracellular dye was removed by washing with assay buffer (2.5 mM probenecid, 0.1% BSA in 20 mM HEPES/HBSS without bicarbonate or phenol red, pH 7.5) and cell plates were kept in the dark until used. Test compounds were assayed at eight concentrations in triplicate.

Row | IC50 | Compound
1 | 43 nM | COc1ccccc1CN(C(=O)Cn1nnc2ccccc21)[C@@H](C(=O)NC[C@H]1CCCO1)c1ccc(C)cc1 [Compound 1 (R,R), 2-(1H-benzotriazol-1-yl)-N-(2-methoxybenzyl)-N-{[(1R)-1-(4-methylphenyl)]-2-oxo-2-[(2R)-(tetrahydrofuran-2-ylmethyl)amino]ethyl}acetamide]
2 | 300 nM | COc1ccccc1CN(C(=O)Cc1ccccc1C)C(C(=O)NCC1CCCO1)c1ccc(C)cc1 (centres unmarked) [9 (mix)]
3 | 13800 nM | Cc1ccc(C(C(=O)NCC2CCCO2)N(CC2CCCCC2)C(=O)Cc2c[nH]cn2)cc1 (centres unmarked) [36 (mix), N-(cyclohexylmethyl)-2-(1H-imidazol-4-yl)-N-{1-(4-methylphenyl)-2-oxo-2-[(tetrahydrofuran-2-ylmethyl)amino]ethyl}acetamide]
4 | 9800 nM | Cc1ccc(C(C(=O)NCC2CCCO2)N(CC2CCCC2)C(=O)Cc2ccccc2)cc1 (centres unmarked) [47 (mix), N-(cyclopentylmethyl)-N-{1-(4-methylphenyl)-2-oxo-2-[(tetrahydrofuran-2-yl)methylamino]ethyl}2-phenylacetamide]
5 | 1400 nM | COc1ccccc1CN(C(=O)Cc1ccc(C)cc1)C(C(=O)NCC1CCCO1)c1ccc(C)cc1 (centres unmarked) [19 (mix)]
6 | 1700 nM | Cc1ccc(C(C(=O)NCC2CCCO2)N(CC2CCCCC2)C(=O)Cc2ccccc2C)cc1 (centres unmarked) [33 (mix), N-(cyclohexylmethyl)-2-(2-methylphenyl)-N-{1-(4-methylphenyl)-2-oxo-2-[(tetrahydrofuran-2-ylmethyl)amino]ethyl}acetamide]
7 | 540 nM | COc1ccccc1CN(C(=O)Cc1cccc(F)c1F)[C@@H](C(=O)NC[C@H]1CCCO1)c1ccc(C)cc1 [Compound 3 (R,R), 2-(2,3-difluorophenyl)-N-(2-methoxybenzyl)-N-{(1R)-1-(4-methylphenyl)-2-oxo-2-[(2R)-(tetrahydrofuran-2-ylmethyl)amino]ethyl}acetamide]
8 | 8400 nM | COc1ccccc1CN(C(=O)C1CCC(F)(F)CC1)C(C(=O)NCC1CCCO1)c1ccc(C)cc1 (centres unmarked) [23 (mix), 4,4-difluoro-N-(2-methoxybenzyl)-N-{1-(4-methylphenyl)-2-oxo-2-[(tetrahydrofuran-2-ylmethyl)amino]ethyl}cyclohexanecarboxamide]
9 | 8700 nM | COc1ccccc1CN(C(=O)c1ccc(F)cc1)C(C(=O)NCC1CCCO1)c1ccc(C)cc1 (centres unmarked) [22 (mix), 4-fluoro-N-(2-methoxybenzyl)-N-{1-(4-methylphenyl)-2-oxo-2-[(tetrahydrofuran-2-ylmethyl)amino]ethyl}benzamide]
10 | 300 nM | COc1ccccc1CN(C(=O)C1CCCC1)C(C(=O)NCC1CCCO1)c1ccc(C)cc1 (centres unmarked) [15 (mix), N-(2-methoxybenzyl)-N-{1-(4-methylphenyl)-2-oxo-2-[(tetrahydrofuran-2-ylmethyl)amino]ethyl}cyclopentanecarboxamide]
11 | 300 nM | COc1ccccc1CN(C(=O)CN1C(=O)c2ccccc2C1=O)C(C(=O)NCC1CCCO1)c1ccc(C)cc1 (centres unmarked) [10 (mix), 2-(1,3-dioxoisoindolin-2-yl)-N-(2-methoxybenzyl)-N-{1-(4-methylphenyl)-2-oxo-2-[(tetrahydrofuran-2-ylmethyl)amino]-ethyl}acetamide]
12 | 98 nM | COc1ccccc1CN(C(=O)Cc1c[nH]cn1)C(C(=O)NCC1CCCO1)c1ccc(C)cc1 (centres unmarked) [12 (mix), 2-(1H-imidazol-4-yl)-N-(2-methoxybenzyl)-N-{1-(4-methylphenyl)-2-oxo-2-[(tetrahydrofuran-2-ylmethyl)amino]ethyl}acetamide]
13 | 11 nM | COc1ccccc1CN(C(=O)Cn1ccnn1)[C@@H](C(=O)NC[C@H]1CCCO1)c1ccc(C)cc1 [Compound 30 (R,R), N-(2-methoxybenzyl)-N-{(1R)-1-(4-methylphenyl)-2-oxo-2-[(2R)-(tetrahydrofuran-2-ylmethyl)amino]ethyl}-2-(1H-1,2,3-triazol-1-yl)acetamide]
14 | 63 nM | COc1ccccc1CN(C(=O)CC(C)C)C(C(=O)NCC1CCCO1)c1ccc(C2CC2)cc1 (centres unmarked) [52 (mix), N-(2-methoxybenzyl]-N-[1-(4-cyclopropylphenyl)-2-oxo-2-[(tetrahydrofuran-2-yl)methylamino]ethyl)-3-methylbutanamide]
15 | 1100 nM | Cc1ccc(C(C(=O)NCC2CCCO2)N(CC2CCCCC2)C(=O)CN(C)C)cc1 (centres unmarked) [34 (mix), N-(cyclohexylmethyl)-2-(dimethylamino)-N-{1-(4-methylphenyl)-2-oxo-2-[(tetrahydrofuran-2-ylmethyl)amino]ethyl}acetamide]
16 | 120 nM | N-(2-methoxybenzyl)-N-{(1S)-1-(4-methylphenyl)-2-oxo-2-[(2R)-(pyrrolidin-2-ylmethyl)amino]ethyl}-2-(1H-1,2,3-triazol-1-yl)acetate [55 (S,R)]

Row | IC50 | Compound
17 | 300 nM | COc1ccccc1CN(C(=O)Cc1cccc(C)c1)C(C(=O)NCC1CCCO1)c1ccc(C)cc1 (centres unmarked) [18 (mix)]
18 | 1000 nM | COc1ccccc1CN(C(=O)c1ccc(O)cc1)C(C(=O)NCC1CCCO1)c1ccc(C)cc1 (centres unmarked) [16 (mix), 4-hydroxy-N-(2-methoxybenzyl)-N-{1-(4-methylphenyl)-2-oxo-2-[(tetrahydrofuran-2-ylmethyl)amino]ethyl}benzamide]
19 | 68 nM | COc1ccccc1CN(C(=O)Cn1ccnn1)C(C(=O)NCC1CCCO1)c1ccc(C)cc1 (centres unmarked) [30 (mix), N-(2-methoxybenzyl)-N-{1-(4-methylphenyl)-2-oxo-2-[(tetrahydrofuran-2-ylmethyl)amino]ethyl}-2-(1H-1,2,3-triazol-1-yl)acetamide]
20 | 1200 nM | COc1ccccc1CN(C(=O)CCC(C)=O)C(C(=O)NCC1CCCO1)c1ccc(C)cc1 (centres unmarked) [17 (mix), 4-oxo-N-(2-methoxybenzyl)-N-{1-(4-methylphenyl)-2-oxo-2-[(tetrahydrofuran-2-ylmethyl)amino]ethyl}pentanamide]
21 | 418 nM | COc1ccccc1CN(C(=O)CC(C)C)C(C(=O)NCC1CCCO1)c1ccc(C)cc1 (centres unmarked) [8 (mix)]
22 | 13100 nM | Cc1ccc(C(C(=O)NCC2CCCO2)N(CC2CCCC2)C(=O)Cc2cccc(C)c2)cc1 (centres unmarked) [45 (mix), N-(cyclopentylmethyl)-2-(3-methylphenyl)-N-{1-(4-methylphenyl)-2-oxo-2-[(tetrahydrofuran-2-ylmethyl)amino]ethyl}acetamide]
23 | 5100 nM | Cc1ccc(C(C(=O)NCC2CCCO2)N(CC2CCCCC2)C(=O)Cc2cccc(C)c2)cc1 (centres unmarked) [40 (mix), N-(cyclohexylmethyl)-2-(3-methylphenyl)-N-{1-(4-methylphenyl)-2-oxo-2-[(tetrahydrofuran-2-ylmethyl)amino]ethyl}acetamide]
24 | 3500 nM | COc1ccccc1CN(C(=O)Cc1ccc(F)cc1)C(C(=O)NCC1CCCO1)c1ccc(C)cc1 (centres unmarked) [21 (mix)]
25 | 456 nM | COc1ccccc1CN(C(=O)Cc1c(F)cccc1F)[C@@H](C(=O)NC[C@H]1CCCO1)c1ccc(C)cc1 [Compound 6 (R,R), 2-(2,6-difluorophenyl)-N-(2-methoxybenzyl)-N-{(1R)-1-(4-methylphenyl)-2-oxo-2-[(2R)-(tetrahydrofuran-2-ylmethyl)amino]ethyl}acetamide]
26 | 800 nM | Cc1ccc(C(C(=O)NCC2CCCO2)N(CC2CCCC2)C(=O)Cc2c[nH]cn2)cc1 (centres unmarked) [32 (mix), N-(cyclopentylmethyl)-2-(1H-imidazol-4-yl)-N-{1-(4-methylphenyl)-2-oxo-2-[(tetrahydrofuran-2-ylmethyl)amino]ethyl}acetamide]
27 | 9500 nM | Cc1ccc(C(C(=O)NCC2CCCO2)N(Cc2cccn2C)C(=O)CN(C)C)cc1 (centres unmarked) [43 (mix), 2-(dimethylamino)-N-[(1-methyl-1H-pyrrol-2-yl)methyl]-N-{1-(4-methylphenyl)-2-oxo-2-[(tetrahydrofuran-2-ylmethyl)amino]ethyl}acetamide]
28 | 528 nM | COc1ccccc1CN(C(=O)CC(C)C)C(C(=O)NCC1CCCO1)c1ccc(C(F)(F)F)cc1 (centres unmarked) [54 (mix)]
29 | 6200 nM | Cc1ccc(C(C(=O)NCC2CCCO2)N(CC2CCCCC2)C(=O)Cc2ccccc2)cc1 (centres unmarked) [37 (mix), N-(cyclohexylmethyl)-2-phenyl-N-{1-(4-methylphenyl)-2-oxo-2-[(tetrahydrofuran-2-ylmethyl)amino]ethyl}acetamide]
30 | 13200 nM | CCC(=O)N(Cc1ccccc1OC)C(C(=O)NCC1CCCO1)c1ccc(C)cc1 (centres unmarked) [24 (mix), N-(2-methoxybenzyl)-N-{1-(4-methylphenyl)-2-oxo-2-[(tetrahydrofuran-2-ylmethyl)amino]ethyl}propanamide]
31 | 14700 nM | Cc1ccc(C(C(=O)NCC2CCCO2)N(CC(C)C)C(=O)Cc2c[nH]cn2)cc1 (centres unmarked) [49 (mix), 2-(1H-imidazol-4-yl)-N-(2-methylpropyl)-N-{1-(4-methylphenyl)-2-oxo-2-[(tetrahydrofuran-2-ylmethyl)amino]ethyl}acetamide]

Row | Compound | IC50
32 | N-(2-methoxybenzyl)-N-{(1R)-1-(4-methylphenyl)-2-oxo-2-[(2R)-(pyrrolidin-2-ylmethyl)amino]ethyl}-2-(1H-1,2,3-triazol-1-yl)acetate [Compound 55 (R,R)] | 75.7 nM
